Source: PubChem BioAssay (NCI)
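Protocol summary: plate cells (96-well), add compound at 5 concentrations, incubate 48 h, interpolate endpoints linearly. Definition used: TGI = concentration required for complete inhibition of growth.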

Columns and labels:
Assay in all cases: DTP human tumour cell line panel, 48 h
[1] = system: M14 melanoma
[2] = system: SK-MEL-28 melanoma
[3] = system: RXF 393 renal
[4] = system: SF-539 CNS
[5] = system: HL-60(TB) leukemia
[6] = system: SK-OV-3 ovarian
[7] = system: NCI-H460 lung
[8] = system: HCT-15 colon
[9] = system: RXF-631 renal
[10] = system: SF-268 CNS
[11] = system: MOLT-4 leukemia
[12] = system: DLD-1 colon
[13] = system: HOP-92 NSCLC
[14] = system: RPMI-8226 leukemia
[15] = system: EKVX NSCLC
[16] = system: SW-620 colon
[17] = system: UO-31 renal
[18] = system: OVCAR-4 ovarian
[19] = system: OVCAR-5 ovarian
[20] = system: NCI-H23 lung
[21] = system: A498 renal
[22] = system: UACC-62 melanoma
[23] = system: XF 498 CNS
[24] = system: OVCAR-3 ovarian
[25] = system: SNB-78 CNS
[26] = system: HOP-62 NSCLC
[27] = system: TK-10 renal
[28] = system: SN12C renal
[29] = system: DMS 273 small cell lung
[30] = system: SK-MEL-2 melanoma
[31] = system: UACC-257 melanoma
[32] = system: IGROV1 ovarian
[33] = system: CCRF-CEM leukemia
[34] = system: SK-MEL-5 melanoma
[35] = system: SNB-19 CNS
[36] = system: OVCAR-8 ovarian
[37] = system: CAKI-1 renal
[38] = system: SF-295 CNS
[39] = system: ACHN renal
[40] = system: HT29 colon
[41] = system: 786-0 renal
[42] = system: K-562 leukemia
[43] = system: U251 CNS
[44] = system: KM20L2 colon
[45] = system: LXFL 529 NSCLC
[46] = system: A549 NSCLC
[47] = system: SNB-75 CNS
[48] = system: M19-MEL melanoma
[49] = system: HCT-116 colon
[50] = system: HOP-18 NSCLC
[51] = system: SR leukemia
[52] = system: NCI-H226 lung
[53] = system: MALME-3M melanoma
[54] = system: NCI-H522 lung
[55] = system: HCC-2998 colon
[56] = system: KM12 colon
[57] = system: COLO 205 colon
[58] = system: DMS 114 small cell lung
[59] = system: LOX IMVI melanoma

SMILES: c1cncc(C2N3CCCCC3[C@@H]3c4[nH]c5ccccc5c4CCN23)c1 (some centres not stated)
- TGI [1]: > 100 µM
- TGI [2]: > 100 µM
- TGI [3]: > 100 µM
- TGI [4]: > 100 µM
- TGI [5]: > 100 µM
- TGI [6]: > 100 µM
- TGI [7]: > 100 µM
- TGI [8]: > 100 µM
- TGI [9]: > 100 µM
- TGI [10]: > 100 µM
- TGI [11]: > 100 µM
- TGI [12]: > 100 µM
- TGI [13]: > 100 µM
- TGI [14]: > 100 µM
- TGI [15]: > 100 µM
- TGI [16]: > 100 µM
- TGI [17]: > 100 µM
- TGI [18]: > 100 µM
- TGI [19]: > 100 µM
- TGI [20]: > 100 µM
- TGI [21]: > 100 µM
- TGI [22]: > 100 µM
- TGI [23]: > 100 µM
- TGI [24]: > 100 µM
- TGI [25]: > 100 µM
- TGI [26]: > 100 µM
- TGI [27]: > 100 µM
- TGI [28]: > 100 µM
- TGI [29]: > 100 µM
- TGI [30]: > 100 µM
- TGI [31]: > 100 µM
- TGI [32]: > 100 µM
- TGI [33]: > 100 µM
- TGI [34]: > 100 µM
- TGI [35]: > 100 µM
- TGI [36]: > 100 µM
- TGI [37]: > 100 µM
- TGI [38]: > 100 µM
- TGI [39]: > 100 µM
- TGI [40]: > 100 µM
- TGI [41]: > 100 µM
- TGI [42]: > 100 µM
- TGI [43]: > 100 µM
- TGI [44]: > 100 µM
- TGI [45]: > 100 µM
- TGI [46]: > 100 µM
- TGI [47]: > 100 µM
- TGI [48]: > 100 µM
- TGI [49]: > 100 µM
- TGI [50]: > 100 µM

SMILES: O=S(=O)(/C=C/c1ccc(F)cc1)Cc1ccc(CS(=O)(=O)/C=C/c2ccc(F)cc2)cc1
- TGI [1]: > 100 µM
- TGI [2]: > 100 µM
- TGI [3]: > 100 µM
- TGI [4]: > 100 µM
- TGI [5]: > 100 µM
- TGI [51]: > 100 µM
- TGI [6]: > 100 µM
- TGI [52]: > 100 µM
- TGI [7]: > 100 µM
- TGI [53]: > 100 µM
- TGI [8]: > 100 µM
- TGI [9]: > 100 µM
- TGI [10]: > 100 µM
- TGI [11]: > 100 µM
- TGI [54]: > 100 µM
- TGI [55]: > 100 µM
- TGI [12]: > 100 µM
- TGI [13]: > 100 µM
- TGI [14]: > 100 µM
- TGI [15]: > 100 µM
- TGI [16]: > 100 µM
- TGI [17]: > 100 µM
- TGI [18]: > 100 µM
- TGI [19]: > 100 µM
- TGI [20]: > 100 µM
- TGI [22]: > 100 µM
- TGI [23]: > 100 µM
- TGI [24]: > 100 µM
- TGI [25]: > 100 µM
- TGI [26]: > 100 µM
- TGI [27]: > 100 µM
- TGI [28]: > 100 µM
- TGI [29]: > 100 µM
- TGI [30]: > 100 µM
- TGI [31]: > 100 µM
- TGI [56]: > 100 µM
- TGI [32]: > 100 µM
- TGI [33]: > 100 µM
- TGI [34]: > 100 µM
- TGI [57]: > 100 µM
- TGI [58]: > 100 µM
- TGI [35]: > 100 µM
- TGI [36]: > 100 µM
- TGI [37]: > 100 µM
- TGI [38]: > 100 µM
- TGI [59]: > 100 µM
- TGI [39]: > 100 µM
- TGI [40]: > 100 µM
- TGI [41]: > 100 µM
- TGI [42]: > 100 µM
- TGI [43]: > 100 µM
- TGI [44]: > 100 µM
- TGI [45]: > 100 µM
- TGI [46]: > 100 µM
- TGI [47]: > 100 µM
- TGI [48]: > 100 µM
- TGI [49]: > 100 µM
- TGI [50]: > 100 µM

SMILES: Cc1ccc2c(c1)-c1c3c(nn1-c1ccccc1)-c1ccccc1SC3O2 (configuration not stated)
- TGI [2]: > 100 µM
- TGI [3]: > 100 µM
- TGI [4]: > 100 µM
- TGI [5]: > 100 µM
- TGI [6]: > 100 µM
- TGI [7]: > 100 µM
- TGI [53]: > 100 µM
- TGI [9]: 16.1 µM
- TGI [10]: > 100 µM
- TGI [11]: > 100 µM
- TGI [54]: > 100 µM
- TGI [55]: > 100 µM
- TGI [12]: > 100 µM
- TGI [13]: > 100 µM
- TGI [14]: > 100 µM
- TGI [15]: > 100 µM
- TGI [16]: > 100 µM
- TGI [17]: > 100 µM
- TGI [19]: > 100 µM
- TGI [20]: > 100 µM
- TGI [21]: > 100 µM
- TGI [23]: > 100 µM
- TGI [24]: > 100 µM
- TGI [25]: > 100 µM
- TGI [26]: > 100 µM
- TGI [27]: > 100 µM
- TGI [29]: > 100 µM
- TGI [30]: > 100 µM
- TGI [31]: > 100 µM
- TGI [56]: > 100 µM
- TGI [32]: > 100 µM
- TGI [33]: > 100 µM
- TGI [57]: > 100 µM
- TGI [58]: > 100 µM
- TGI [36]: > 100 µM
- TGI [38]: > 100 µM
- TGI [59]: > 100 µM
- TGI [39]: > 100 µM
- TGI [40]: > 100 µM
- TGI [41]: > 100 µM
- TGI [42]: > 100 µM
- TGI [43]: > 100 µM
- TGI [44]: > 100 µM
- TGI [45]: > 100 µM
- TGI [46]: > 100 µM
- TGI [47]: > 100 µM
- TGI [49]: > 100 µM
- TGI [50]: > 100 µM

SMILES: CSc1nnc(CCC(=O)Nc2c(C)cccc2C)o1
- TGI [1]: > 100 µM
- TGI [2]: > 100 µM
- TGI [3]: > 100 µM
- TGI [4]: > 100 µM
- TGI [5]: > 100 µM
- TGI [6]: > 100 µM
- TGI [52]: > 100 µM
- TGI [7]: > 100 µM
- TGI [53]: > 100 µM
- TGI [8]: > 100 µM
- TGI [9]: > 100 µM
- TGI [10]: > 100 µM
- TGI [11]: > 100 µM
- TGI [54]: > 100 µM
- TGI [55]: > 100 µM
- TGI [12]: > 100 µM
- TGI [13]: > 100 µM
- TGI [14]: > 100 µM
- TGI [15]: > 100 µM
- TGI [16]: > 100 µM
- TGI [17]: > 100 µM
- TGI [18]: > 100 µM
- TGI [19]: > 100 µM
- TGI [20]: > 100 µM
- TGI [21]: > 100 µM
- TGI [22]: > 100 µM
- TGI [23]: > 100 µM
- TGI [24]: > 100 µM
- TGI [25]: > 100 µM
- TGI [26]: > 100 µM
- TGI [27]: > 100 µM
- TGI [28]: > 100 µM
- TGI [30]: > 100 µM
- TGI [31]: > 100 µM
- TGI [56]: > 100 µM
- TGI [32]: > 100 µM
- TGI [33]: > 100 µM
- TGI [34]: > 100 µM
- TGI [57]: > 100 µM
- TGI [58]: > 100 µM
- TGI [35]: > 100 µM
- TGI [36]: > 100 µM
- TGI [37]: > 100 µM
- TGI [38]: > 100 µM
- TGI [59]: > 100 µM
- TGI [40]: > 100 µM
- TGI [41]: > 100 µM
- TGI [42]: > 100 µM
- TGI [43]: > 100 µM
- TGI [44]: > 100 µM
- TGI [45]: > 100 µM
- TGI [46]: > 100 µM
- TGI [47]: > 100 µM
- TGI [48]: > 100 µM
- TGI [49]: > 100 µM
- TGI [50]: > 100 µM
